Experimental data as given in the NIST ThermoML archive (doi:10.1021/je8007759).
± gives the expanded uncertainty stated by the source.

Experiment: xn = mol fraction of the nth substance listed

CC1CCC(=O)O1 (stereo not given) [γ-valerolactone] + O=C=O
Fluid (supercritical or subcritical phases), Pycnometric method
Settings	mass density [kg/m3]
313.2 K, 10860 kPa, x1 = 0.1	942 ± 5
313.2 K, 10880 kPa, x1 = 0.025	833 ± 5
313.2 K, 11030 kPa, x1 = 0.01	778 ± 6
313.2 K, 11160 kPa, x1 = 0.025	840 ± 6
313.2 K, 11200 kPa, x1 = 0.05	872 ± 5
313.2 K, 11230 kPa, x1 = 0.15	981 ± 4
313.2 K, 11440 kPa, x1 = 0.01	789 ± 6
313.2 K, 11450 kPa, x1 = 0.025	846 ± 4
313.2 K, 11640 kPa, x1 = 0.1	949 ± 4
313.2 K, 11660 kPa, x1 = 0.05	878 ± 5
313.2 K, 11770 kPa, x1 = 0.025	852 ± 5
313.2 K, 11850 kPa, x1 = 0.15	985 ± 4
313.2 K, 11950 kPa, x1 = 0.01	802 ± 6
313.2 K, 12460 kPa, x1 = 0.15	987 ± 4
313.2 K, 12490 kPa, x1 = 0.1	956 ± 4
313.2 K, 13220 kPa, x1 = 0.15	992 ± 4
313.2 K, 13510 kPa, x1 = 0.1	964 ± 4
313.2 K, 13960 kPa, x1 = 0.15	995 ± 4
313.2 K, 14650 kPa, x1 = 0.15	999 ± 4
313.2 K, 15420 kPa, x1 = 0.15	1002 ± 4
313.2 K, 16160 kPa, x1 = 0.15	1006 ± 4
313.2 K, 16920 kPa, x1 = 0.15	1009 ± 4
316.2 K, 8740 kPa, x1 = 0.025	683 ± 17
316.2 K, 8760 kPa, x1 = 0.025	687 ± 16
316.2 K, 8790 kPa, x1 = 0.025	692 ± 16
316.2 K, 8810 kPa, x1 = 0.025	696 ± 14
316.2 K, 8830 kPa, x1 = 0.025	700 ± 12
316.2 K, 8880 kPa, x1 = 0.025	704 ± 15
316.2 K, 8910 kPa, x1 = 0.025	709 ± 24
316.2 K, 8960 kPa, x1 = 0.025	713 ± 12
316.2 K, 8990 kPa, x1 = 0.025	718 ± 9
316.2 K, 9060 kPa, x1 = 0.025	723 ± 9
316.2 K, 9110 kPa, x1 = 0.025	728 ± 9
316.2 K, 9180 kPa, x1 = 0.025	732 ± 10
316.2 K, 9250 kPa, x1 = 0.025	737 ± 9
316.2 K, 9320 kPa, x1 = 0.025	742 ± 6
316.2 K, 9410 kPa, x1 = 0.025	747 ± 9
316.2 K, 9500 kPa, x1 = 0.025	752 ± 9
316.2 K, 9590 kPa, x1 = 0.025	758 ± 8
316.2 K, 9700 kPa, x1 = 0.025	762 ± 8
316.2 K, 9800 kPa, x1 = 0.025	768 ± 7
316.2 K, 9930 kPa, x1 = 0.025	772 ± 6
316.2 K, 10060 kPa, x1 = 0.025	778 ± 7
316.2 K, 10210 kPa, x1 = 0.025	783 ± 6
316.2 K, 10360 kPa, x1 = 0.025	788 ± 6
316.2 K, 10520 kPa, x1 = 0.025	794 ± 6
316.2 K, 10720 kPa, x1 = 0.025	800 ± 6
316.2 K, 10910 kPa, x1 = 0.025	806 ± 6
316.2 K, 11110 kPa, x1 = 0.025	812 ± 6
316.2 K, 11350 kPa, x1 = 0.025	818 ± 5
316.2 K, 11610 kPa, x1 = 0.025	824 ± 5
316.2 K, 11880 kPa, x1 = 0.025	830 ± 5
316.2 K, 12200 kPa, x1 = 0.025	836 ± 5
316.2 K, 12480 kPa, x1 = 0.025	842 ± 5
318 K, 9060 kPa, x1 = 0.01	519 ± 22
318 K, 9080 kPa, x1 = 0.01	522 ± 22
318 K, 9090 kPa, x1 = 0.01	525 ± 21
318 K, 9110 kPa, x1 = 0.01	529 ± 21
318 K, 9120 kPa, x1 = 0.01	532 ± 21
318 K, 9140 kPa, x1 = 0.01	535 ± 22
318 K, 9180 kPa, x1 = 0.01	542 ± 22
318 K, 9180 kPa, x1 = 0.15	949 ± 4
318 K, 9190 kPa, x1 = 0.025	680 ± 38
318 K, 9220 kPa, x1 = 0.01	549 ± 10
318 K, 9230 kPa, x1 = 0.025	683 ± 47
318 K, 9250 kPa, x1 = 0.01	556 ± 20
318 K, 9260 kPa, x1 = 0.025	688 ± 42
318 K, 9270 kPa, x1 = 0.05	776 ± 19
318 K, 9290 kPa, x1 = 0.01	563 ± 20
318 K, 9290 kPa, x1 = 0.025	692 ± 37
318 K, 9330 kPa, x1 = 0.01	570 ± 19
318 K, 9330 kPa, x1 = 0.05	782 ± 17
318 K, 9340 kPa, x1 = 0.025	696 ± 21
318 K, 9380 kPa, x1 = 0.01	578 ± 18
318 K, 9380 kPa, x1 = 0.025	700 ± 20
318 K, 9410 kPa, x1 = 0.05	787 ± 9
318 K, 9410 kPa, x1 = 0.1	894 ± 10
318 K, 9430 kPa, x1 = 0.01	586 ± 18
318 K, 9430 kPa, x1 = 0.025	705 ± 17
318 K, 9480 kPa, x1 = 0.01	593 ± 17
318 K, 9480 kPa, x1 = 0.025	709 ± 16
318 K, 9480 kPa, x1 = 0.05	792 ± 8
318 K, 9490 kPa, x1 = 0.15	952 ± 4
318 K, 9530 kPa, x1 = 0.025	714 ± 17
318 K, 9540 kPa, x1 = 0.01	602 ± 10
318 K, 9540 kPa, x1 = 0.1	896 ± 7
318 K, 9590 kPa, x1 = 0.025	718 ± 16
318 K, 9600 kPa, x1 = 0.05	797 ± 8
318 K, 9610 kPa, x1 = 0.01	611 ± 14
318 K, 9660 kPa, x1 = 0.025	723 ± 16
318 K, 9690 kPa, x1 = 0.01	619 ± 13
318 K, 9730 kPa, x1 = 0.025	728 ± 12
318 K, 9730 kPa, x1 = 0.1	900 ± 5
318 K, 9760 kPa, x1 = 0.05	803 ± 7
318 K, 9800 kPa, x1 = 0.01	631 ± 11
318 K, 9800 kPa, x1 = 0.025	732 ± 12
318 K, 9860 kPa, x1 = 0.025	737 ± 12
318 K, 9880 kPa, x1 = 0.1	903 ± 5
318 K, 9930 kPa, x1 = 0.01	642 ± 13
318 K, 9940 kPa, x1 = 0.05	809 ± 6
318 K, 9940 kPa, x1 = 0.15	956 ± 4
318 K, 9950 kPa, x1 = 0.025	742 ± 11
318 K, 10020 kPa, x1 = 0.01	652 ± 10
318 K, 10050 kPa, x1 = 0.025	747 ± 8
318 K, 10080 kPa, x1 = 0.01	657 ± 9
318 K, 10130 kPa, x1 = 0.05	814 ± 5
318 K, 10140 kPa, x1 = 0.1	906 ± 5
318 K, 10150 kPa, x1 = 0.025	752 ± 10
318 K, 10260 kPa, x1 = 0.025	757 ± 15
318 K, 10320 kPa, x1 = 0.15	959 ± 4
318 K, 10340 kPa, x1 = 0.05	820 ± 5
318 K, 10340 kPa, x1 = 0.1	909 ± 5
318 K, 10380 kPa, x1 = 0.025	762 ± 17
318 K, 10500 kPa, x1 = 0.025	768 ± 8
318 K, 10600 kPa, x1 = 0.05	825 ± 5
318 K, 10610 kPa, x1 = 0.1	912 ± 6
318 K, 10640 kPa, x1 = 0.025	773 ± 6
318 K, 10750 kPa, x1 = 0.01	695 ± 8
318 K, 10800 kPa, x1 = 0.025	779 ± 6
318 K, 10850 kPa, x1 = 0.1	916 ± 4
318 K, 10870 kPa, x1 = 0.05	832 ± 6
318 K, 10920 kPa, x1 = 0.15	962 ± 4
318 K, 10960 kPa, x1 = 0.025	784 ± 5
318 K, 11040 kPa, x1 = 0.01	711 ± 8
318 K, 11120 kPa, x1 = 0.025	789 ± 7
318 K, 11140 kPa, x1 = 0.1	919 ± 5
318 K, 11160 kPa, x1 = 0.05	838 ± 5
318 K, 11320 kPa, x1 = 0.025	795 ± 10
318 K, 11440 kPa, x1 = 0.1	922 ± 4
318 K, 11470 kPa, x1 = 0.05	843 ± 5
318 K, 11480 kPa, x1 = 0.15	966 ± 4
318 K, 11520 kPa, x1 = 0.025	801 ± 6
318 K, 11740 kPa, x1 = 0.025	806 ± 6
318 K, 11750 kPa, x1 = 0.1	925 ± 4
318 K, 11860 kPa, x1 = 0.05	850 ± 5
318 K, 11950 kPa, x1 = 0.025	813 ± 5
318 K, 11960 kPa, x1 = 0.15	969 ± 4
318 K, 12090 kPa, x1 = 0.1	928 ± 4
318 K, 12210 kPa, x1 = 0.025	818 ± 5
318 K, 12240 kPa, x1 = 0.05	857 ± 5
318 K, 12490 kPa, x1 = 0.025	824 ± 5
318 K, 12600 kPa, x1 = 0.15	972 ± 4
318 K, 12670 kPa, x1 = 0.05	862 ± 5
318 K, 12770 kPa, x1 = 0.025	830 ± 5
318 K, 12780 kPa, x1 = 0.1	935 ± 4
318 K, 13080 kPa, x1 = 0.025	836 ± 5
318 K, 13090 kPa, x1 = 0.15	975 ± 4
318 K, 13150 kPa, x1 = 0.05	869 ± 5
318 K, 13490 kPa, x1 = 0.025	843 ± 5
318 K, 13580 kPa, x1 = 0.1	943 ± 4
318 K, 13710 kPa, x1 = 0.15	978 ± 4
318 K, 13740 kPa, x1 = 0.025	849 ± 5
318 K, 13850 kPa, x1 = 0.05	878 ± 5
318 K, 13990 kPa, x1 = 0.1	945 ± 5
318 K, 14310 kPa, x1 = 0.15	982 ± 4
318 K, 14380 kPa, x1 = 0.1	949 ± 5
318 K, 15060 kPa, x1 = 0.15	986 ± 4
318 K, 15680 kPa, x1 = 0.15	989 ± 4
318 K, 16350 kPa, x1 = 0.15	992 ± 4
318 K, 16950 kPa, x1 = 0.15	995 ± 4
322.9 K, 9850 kPa, x1 = 0.01	518 ± 17

mass density [kg/m3], high pressure variable cell
Settings	x1 = 0.01	x1 = 0.025	x1 = 0.05	x1 = 0.1	x1 = 0.15
313.2 K, Liquid	539 ± 6	723 ± 6	803 ± 4	910 ± 4	961 ± 4
318 K, Gas	516 ± 4	677 ± 4	–	–	–
318 K, Liquid	–	–	–	891 ± 4	948 ± 4
